Assay results as given in ChEMBL document CHEMBL1938275, “Antibacterial activity of chalcones, hydrazones and oxadiazoles against methicillin-resistant Staphylococcus aureus” (Bioorg Med Chem Lett, 2012).
≈ marks a conversion by molar mass, not a printed value.

Key:
Staphylococcus aureus [1] = test: Antibacterial activity against methicillin-resistant Staphylococcus aureus isolate 2 after 24 hrs by broth microdilution method; assay type: functional; conditions: isolate 2, 24 h
Staphylococcus aureus [2] = test: Antibacterial activity against methicillin-resistant Staphylococcus aureus isolate 7 after 24 hrs by broth microdilution method; assay type: functional; conditions: isolate 7, 24 h
Staphylococcus aureus [3] = test: Antibacterial activity against methicillin-sensitive Staphylococcus aureus ATCC 25923 after 24 hrs by broth microdilution method; assay type: functional; conditions: ATCC 25923, 24 h
Staphylococcus aureus [4] = test: Antibacterial activity against methicillin-resistant Staphylococcus aureus isolate 14 after 24 hrs by broth microdilution method; assay type: functional; conditions: isolate 14, 24 h
Staphylococcus aureus [5] = test: Antibacterial activity against methicillin-resistant Staphylococcus aureus isolate 11 after 24 hrs by broth microdilution method; assay type: functional; conditions: isolate 11, 24 h
Staphylococcus aureus [6] = test: Antibacterial activity against methicillin-resistant Staphylococcus aureus isolate 9 after 24 hrs by broth microdilution method; assay type: functional; conditions: isolate 9, 24 h
Staphylococcus aureus [7] = test: Antibacterial activity against methicillin-resistant Staphylococcus aureus isolate 5 after 24 hrs by broth microdilution method; assay type: functional; conditions: isolate 5, 24 h
Staphylococcus aureus [8] = test: Antibacterial activity against methicillin-resistant Staphylococcus aureus isolate 12 after 24 hrs by broth microdilution method; assay type: functional; conditions: isolate 12, 24 h
Staphylococcus aureus [9] = test: Antibacterial activity against methicillin-resistant Staphylococcus aureus isolate 10 after 24 hrs by broth microdilution method; assay type: functional; conditions: isolate 10, 24 h
Staphylococcus aureus [10] = test: Antibacterial activity against methicillin-resistant Staphylococcus aureus isolate 13 after 24 hrs by broth microdilution method; assay type: functional; conditions: isolate 13, 24 h
[11] = Cytotoxicity against african green monkey Vero cells assessed as cell death after 72 hrs by MTT assay; assay type: cell-based; conditions: chlorocebus sabaeus
Staphylococcus aureus [12] = test: Antibacterial activity against methicillin-resistant Staphylococcus aureus isolate 6 after 24 hrs by broth microdilution method; assay type: functional; conditions: isolate 6, 24 h
Staphylococcus aureus [13] = test: Antibacterial activity against methicillin-resistant Staphylococcus aureus isolate 4 after 24 hrs by broth microdilution method; assay type: functional; conditions: isolate 4, 24 h
Staphylococcus aureus [14] = test: Antibacterial activity against methicillin-resistant Staphylococcus aureus isolate 8 after 24 hrs by broth microdilution method; assay type: functional; conditions: isolate 8, 24 h
Staphylococcus aureus [15] = test: Antibacterial activity against methicillin-resistant Staphylococcus aureus isolate 3 after 24 hrs by broth microdilution method; assay type: functional; conditions: isolate 3, 24 h
Vero = test: Cytotoxicity against African green monkey Vero cells assessed as inhibition of cell growth after 72 hrs by MTT assay; assay type: cell-based; conditions: Chlorocebus sabaeus
Staphylococcus aureus [16] = test: Antibacterial activity against methicillin-resistant Staphylococcus aureus isolate 1 after 24 hrs by broth microdilution method; assay type: functional; conditions: isolate 1, 24 h
Staphylococcus aureus [17] = test: Selectivity index, Ratio of CC50 for african green monkey Vero cells to IC50 for Staphylococcus aureus

Row | SMILES | MIC (Staphylococcus aureus [1]) | MIC (Staphylococcus aureus [2]) | MIC (Staphylococcus aureus [3]) | MIC (Staphylococcus aureus [4]) | MIC (Staphylococcus aureus [5]) | MIC (Staphylococcus aureus [6]) | MIC (Staphylococcus aureus [7]) | MIC (Staphylococcus aureus [8]) | MIC (Staphylococcus aureus [9]) | MIC (Staphylococcus aureus [10]) | CC50 at 72 h [11] | MIC (Staphylococcus aureus [12]) | MIC (Staphylococcus aureus [13]) | MIC (Staphylococcus aureus [14]) | MIC (Staphylococcus aureus [15]) | IC50 (Vero) | MIC (Staphylococcus aureus [16]) | Ratio CC50/IC50 (Staphylococcus aureus [17])
1 | COc1cc(C(=O)N/N=C/c2ccc([N+](=O)[O-])s2)cc(OC)c1OC | 125 µg/mL (≈ 342 µM) | 125 µg/mL (≈ 342 µM) | 15.6 µg/mL (≈ 42.8 µM) | 125 µg/mL (≈ 342 µM) | 125 µg/mL (≈ 342 µM) | 125 µg/mL (≈ 342 µM) | 125 µg/mL (≈ 342 µM) | 125 µg/mL (≈ 342 µM) | 125 µg/mL (≈ 342 µM) | 125 µg/mL (≈ 342 µM) | 857 µg/mL (≈ 2340 µM) | 125 µg/mL (≈ 342 µM) | 15.6 µg/mL (≈ 42.8 µM) | 125 µg/mL (≈ 342 µM) | 125 µg/mL (≈ 342 µM) | 7.81 µg/mL (≈ 21.4 µM) | 125 µg/mL (≈ 342 µM) | 109.7
2 | O=C(CCc1ccccc1O)c1ccccc1 | ≥ 1000 µg/mL | ≥ 1000 µg/mL | 500 µg/mL (≈ 2210 µM) | ≥ 1000 µg/mL | ≥ 1000 µg/mL | ≥ 1000 µg/mL | ≥ 1000 µg/mL | ≥ 1000 µg/mL | ≥ 1000 µg/mL | ≥ 1000 µg/mL |  | ≥ 1000 µg/mL | ≥ 1000 µg/mL | ≥ 1000 µg/mL | ≥ 1000 µg/mL |  | ≥ 1000 µg/mL | 
3 | CN[C@H](CC(C)C)C(=O)N[C@H]1C(=O)N[C@@H](CC(N)=O)C(=O)N[C@H]2C(=O)N[C@H]3C(=O)N[C@H](C(=O)N[C@H](C(=O)O)c4cc(O)cc(O)c4-c4cc3ccc4O)[C@H](O)c3ccc(c(Cl)c3)Oc3cc2cc(c3O[C@@H]2O[C@H](CO)[C@@H](O)[C@H](O)[C@H]2O[C@H]2C[C@](C)(N)[C@H](O)[C@H](C)O2)Oc2ccc(cc2Cl)[C@H]1O [VANCOMYCIN] | 0.8 µg/mL (≈ 0.552 µM) | 0.8 µg/mL (≈ 0.552 µM) | 0.2 µg/mL (≈ 0.138 µM) | 0.8 µg/mL (≈ 0.552 µM) | 0.8 µg/mL (≈ 0.552 µM) | 0.8 µg/mL (≈ 0.552 µM) | 0.4 µg/mL (≈ 0.276 µM) | 0.8 µg/mL (≈ 0.552 µM) | 0.8 µg/mL (≈ 0.552 µM) | 0.8 µg/mL (≈ 0.552 µM) |  | 0.4 µg/mL (≈ 0.276 µM) | 0.8 µg/mL (≈ 0.552 µM) | 0.8 µg/mL (≈ 0.552 µM) | 0.8 µg/mL (≈ 0.552 µM) |  | 0.8 µg/mL (≈ 0.552 µM) | 
4 | O=C(N/N=C/c1ccc([N+](=O)[O-])o1)c1ccccc1 | 62.5 µg/mL (≈ 241 µM) | 125 µg/mL (≈ 482 µM) | 62.5 µg/mL (≈ 241 µM) | 62.5 µg/mL (≈ 241 µM) | 125 µg/mL (≈ 482 µM) | 125 µg/mL (≈ 482 µM) | 62.5 µg/mL (≈ 241 µM) | 62.5 µg/mL (≈ 241 µM) | 15.6 µg/mL (≈ 60.3 µM) | 62.5 µg/mL (≈ 241 µM) | 489 µg/mL (≈ 1890 µM) | 62.5 µg/mL (≈ 241 µM) | 15.6 µg/mL (≈ 60.3 µM) | 125 µg/mL (≈ 482 µM) | 62.5 µg/mL (≈ 241 µM) | 7.81 µg/mL (≈ 30.1 µM) | 125 µg/mL (≈ 482 µM) | 62.6
5 | COc1ccc(C(=O)/C=C/c2ccc(O)cc2)c(O)c1CC=C(C)C | ≥ 1000 µg/mL | ≥ 1000 µg/mL |  | ≥ 1000 µg/mL | ≥ 1000 µg/mL | ≥ 1000 µg/mL | ≥ 1000 µg/mL | ≥ 1000 µg/mL | ≥ 1000 µg/mL | ≥ 1000 µg/mL |  | ≥ 1000 µg/mL | ≥ 1000 µg/mL | ≥ 1000 µg/mL | ≥ 1000 µg/mL |  | ≥ 1000 µg/mL | 
